{"source": "patent US11173135B2", "about": "(Thiogenesis Therapeutics, Inc., priority 2016, dated 2021)", "key": {"[1]": {"settings": "in vivo; cited from earlier work"}, "[2]": {"settings": "cystinuria patients; cited from earlier work"}, "[3]": {"assay": "Analysis of gastrointestinal contents at end of PK study", "format": "in vivo, Sprague-Dawley rats", "settings": "120 mg/kg rats, ten hours after dosing", "protocol": "(§1) In addition to the plasma samples, gastrointestinal contents (stomach contents, proximal small intestinal contents, distal small intestinal contents and cecum/colon contents), liver, kidney and spleen were obtained from rats at the end of the study (10.5 hours after dosing) and snap frozen. Tissue levels of cysteamine, N-acetyl cysteamine and pantothenic acid were measured in the gastrointestinal contents and in liver and kidney tissue. […]"}, "[4]": {"assay": "Tissue levels of cysteamine in liver and kidney at end of PK study", "format": "in vivo, Sprague-Dawley rats", "settings": "10.5 hours after TTI-0602 120 mg/kg, all three rats", "protocol": "as §1"}, "[5]": {"assay": "Dissolution of TTI-0602 dose in saline", "format": "physicochemical", "settings": "120 mg/kg dose in 3 milliliters of saline"}, "[6]": {"assay": "Pharmacokinetic study of TTI-0602: cysteamine in blood plasma after gavage", "format": "in vivo, Sprague-Dawley rats", "protocol": "Thus in the discussion below, and in the accompanying figures, a “30 mg/kg” dose of TTI-0602 means 77.92 mg/kg was administered, a “60 mg/kg” dose of TTI-0602 means 155.84 mg/kg was administered and a “120 mg/kg” dose of TTI-0602 means 311.68 mg/kg was administered. The purpose of this nomenclature, which is widely used in the literature concerning cysteamine salts, is to facilitate comparison of doses of different cysteamine precursors and cysteamine salts.\nThe TTI-0602 doses were prepared for 250 gram rats, but the actual masses of the rats at the time of drug administration varied from 267-300 grams, so the actual doses, normalized to body weight, ranged from 26.1-27.1 mg/kg in group 1, 51.7-56.2 mg/kg in group 2 and 108.3-109.5 mg/kg in group 3. Nonetheless, for convenience those doses are referred to as 30, 60 and 120 mg/kg.\nBlood samples were obtained from rats immediately before dosing and 5, 10, 20, 30, 45, 60, 90, 120, 180, 240, 300 and 600 minutes after dosing via carotid artery catheters surgically implanted before the PK study. Plasma was obtained from blood by centrifugation and snap frozen. Several days later plasma samples were thawed on ice and each plasma sample was aliquoted to two paired tubes (20 μL per tube), one of which was processed for measurement of thiols (after quantitative disulfide bond reduction), while the other was processed for analysis of disulfides.\nTo quantitatively reduce disulfide bonds the plasma in the first tube was treated with 5 mM tris(2-carboxyethyl)phosphine (TCEP), a selective and potent disulfide bond reducing agent, using a protocol reported by Dohil et al. (2012). Briefly, 2.2 ul of freshly prepared 50 mM TCEP stock solution was added to 20 ul of plasma and the sample incubated at 37 degrees C. for 45 minutes. […]\nThe denatured protein was pelleted by centrifugation at 14,000 rpm for 10 minutes at 4 degrees C. in an Eppendorf microcentrifuge. […] Metabolites were analyzed using a Nexera X2 U-HPLC (Shimadzu) and a Q-Exactive hybrid quadrupole Orbitrap mass spectrometer (Thermo Fisher Scientific). […]"}, "[7]": {"settings": "cited from earlier work"}, "[8]": {"system": "kidney fibrosis", "settings": "two mouse models; cited from earlier work"}, "[9]": {"system": "R6/2 HD mouse model", "settings": "R6/2 mouse; cited from earlier work"}, "[10]": {"system": "children with NAFLD", "settings": "pediatric NAFLD patients treated for 24 weeks; cited from earlier work"}, "[11]": {"system": "Pseudomonas aeruginosa", "settings": "cited from earlier work"}, "[12]": {"system": "erythrocytes from sickle cell disease patients", "settings": "hypoxic conditions; cited from earlier work"}, "[13]": {"system": "Plasmodium Falciparum", "settings": "in vitro and in mouse models of malaria; cited from earlier work"}, "[14]": {"system": "CYP1A2, CYP2B6, CYP2C8, CYP2C9, CYP2C19, CYP2D6, CYP2E1, CYP2A6, CYP3A4", "settings": "in vitro; cited from earlier work"}, "[15]": {"system": "CYP1A2, CYP2A6, CYP2B6, CYP2C8, CYP2C9, CYP2C19, CYP2D6, CYP2E1 and CYP3A4", "settings": "in vitro; cited from earlier work"}, "[16]": {"settings": "Lynovex from Novabiotics; cited from earlier work"}, "[17]": {"settings": "administered to fasting patients; cited from earlier work"}, "[18]": {"system": "cancer cell lines and xenograft models", "settings": "cited from earlier work"}, "[19]": {"system": "ALT and AST in plasma", "assay": "Example 9 NASH patient case: plasma liver enzymes", "format": "in vivo, human", "settings": "within six weeks of initiating therapy; with vitamin C and vitamin E", "method": "The daily dose of vitamin C is 2 grams and the daily dose of vitamin E is 800 international units of alpha tocopherol, RRR stereoisomer, which amounts to 533.3 milligrams per day (1 IU of tocopherol is defined as % milligrams of RRR-alpha-tocopherol). Half those amounts are administered twice per day.\nDrug is administered in two divided doses (1,392 mg each) at 10 to 12 hour intervals, with breakfast and dinner.\nIn the second category (dynamic markers of drug response) levels of ALT and AST in plasma are followed over time as an index of ongoing hepatocyte damage. […] If ALT and AST levels had not dropped by 50% the regimen would have been discontinued."}, "[20]": {"assay": "Example 8 cystinosis patient cases: plasma cysteamine levels", "format": "in vivo, human", "source_text": "(§2) Dose formulations and treatment regimens for three patients with cystinosis are described, to illustrate both demographic variability in the patient population and how inter-individual biochemical variation in drug absorption, metabolism and response can be overcome by exploiting the drug and dosage form flexibility provided by the invention. These examples illustrate the principles of cysteamine precursor selection, dosage form selection and dose regimen individualization."}, "[21]": {"system": "white blood cell (WBC) cystine", "assay": "Example 8 cystinosis patient cases: white blood cell cystine", "format": "in vivo, human", "source_text": "as §2\nDisease control is monitored via periodic measurement of white blood cell cystine levels. The therapeutic target, as for all cystinosis patients, is to suppress white blood cell (WBC) cystine to less than 1 nanomole of ½ cystine per mg of WBC protein. […] If this higher dose is still not effective in controlling WBC cystine levels the dose can be further increased in increments of 150 mg/day."}, "[22]": {"system": "cystinosis patients", "settings": "high doses, syrup between meals; cited from earlier work"}, "[23]": {"settings": "cysteamine hydrochloride at 30 mg/kg cysteamine base, gavage"}}, "data": [{"smiles": "CC(C)(COP(=O)(O)O)[C@@H](O)C(=O)NCCC(=O)NCCS", "note": "[4-phosphopantetheine]", "values": [{"measurement": "half life in blood", "setting": "[1]", "value": "over 3 hours"}]}, {"smiles": "CC(S)C(=O)NCC(=O)O", "note": "(stereo not drawn) [Alpha-mercaptopropionylglycine]", "values": [{"measurement": "tolerability", "setting": "[2]", "value": "not tolerated by about one third of patients"}]}, {"smiles": "CC(=O)NCCSSCCNC(=O)CCNC(=O)[C@H](O)C(C)(C)CO", "note": "[TTI-0602, N-acetylcysteamine-(R)-pantetheine disulfide]", "values": [{"measurement": "undissolved drug in gastrointestinal contents", "setting": "[3]", "value": "a substantial amount of undissolved drug remained stuck in the stomachs of rats 8 and 9"}, {"measurement": "tissue level of cysteamine in kidney", "setting": "[4]", "value": "over 50 uM"}, {"measurement": "tissue level of cysteamine in liver", "setting": "[4]", "value": "over 50 uM"}, {"measurement": "dissolution of dose in saline", "setting": "[5]", "value": "did not completely dissolve in saline"}]}, {"smiles": "Cl.NCCS", "note": "[cysteamine HCl, cysteamine hydrochloride]", "values": [{"measurement": "shape of the plasma cysteamine concentration-time curve", "setting": "[6]; cysteamine hydrochloride 30 mg/kg vs TTI-0602 120 mg/kg", "value": "a high, sharp peak"}, {"measurement": "peak plasma cysteamine concentration", "setting": "[6]; [23]", "value": "over 200 uM"}, {"measurement": "time by which cysteamine concentration declined to less than half maximal", "setting": "[6]; [23]", "value": "≤ 90", "unit": "min"}]}, {"smiles": "NCCS", "note": "[cysteamine bitartrate]", "values": [{"measurement": "Cmax", "setting": "[7]; read-out: Cmax of cysteamine, cysteamine bitartrate 20 mg/kg cysteamine base equivalent", "value": 81.9, "unit": "µM"}]}, {"smiles": "NCCS.O=C(O)C(O)C(O)C(=O)O", "note": "(centres unmarked) [cysteamine bitartrate]", "values": [{"measurement": "time by which cysteamine levels returned to baseline", "setting": "[7]; cysteamine bitartrate 20 mg/kg cysteamine base equivalent", "value": "≤ 2", "unit": "h"}, {"measurement": "cysteamine eliminated by 150 minutes (inferred)", "setting": "[7]; cysteamine bitartrate 20 mg/kg, tissue", "value": "over 95%"}, {"measurement": "tissue half life of cysteamine", "setting": "[7]; cysteamine bitartrate 20 mg/kg", "value": "25 to 29", "unit": "min"}]}, {"smiles": "NCCS", "note": "[cysteamine, 2-aminoethanethiol]", "values": [{"measurement": "efficacy in kidney fibrosis models", "setting": "[8]", "value": "effective"}, {"measurement": "beneficial effects in HD mouse model", "setting": "[9]", "value": "amelioration of weight loss and motor abnormalities, and prolongation of survival"}, {"measurement": "high molecular weight adiponectin multimers", "setting": "[10]", "value": "increased levels of high molecular weigh adiponectin multimers"}, {"measurement": "effect on biofilms", "setting": "[11]; P. aeruginosa biofilms", "value": "prevented the formation of, and disrupted established P. aeruginosa biofilms"}, {"measurement": "bactericidal activity", "setting": "[11]; Pseudomonas aeruginosa and other CF pathogens, Lynovex from Novabiotics", "value": "bactericidal"}, {"measurement": "sickling", "setting": "[12]", "value": "marked inhibition of sickling"}, {"measurement": "proliferation of the parasite", "setting": "[13]", "value": "inhibits proliferation"}, {"measurement": "metabolism by CYP enzymes", "setting": "[14]", "value": "likely to be metabolized by multiple CYP enzymes, including CYP1A2, CYP2B6, CYP2C8, CYP2C9, CYP2C19, CYP2D6, and CYP2E1, but not by CYP2A6 or CYP3A4"}, {"measurement": "inhibition of CYP enzymes", "setting": "[15]", "value": "not an inhibitor of CYP1A2, CYP2A6, CYP2B6, CYP2C8, CYP2C9, CYP2C19, CYP2D6, CYP2E1 and CYP3A4"}, {"measurement": "mucolytic activity vs. currently available mucolytic agents", "setting": "[16]", "value": "at least comparable mucolytic activity"}, {"measurement": "inter-patient variation in cysteamine plasma levels", "setting": "[17]", "value": "up to four fold"}, {"measurement": "matrix metalloproteinase activity", "setting": "[18]; animal xenografts and cancer cell lines", "value": "significantly decreased"}, {"measurement": "survival of mice", "setting": "[18]; xenograft models", "value": "prolonged survival of mice in a dose-dependent manner without toxicity"}]}, {"smiles": "CC(=O)NC(CSSCCN)C(=O)O", "note": "(centres unmarked) [cysteamine-N-acetylcysteine, cysteamine-N-acetylcysteine disulfide]", "values": [{"measurement": "fall in plasma ALT", "setting": "[19]", "value": "at least 50%"}, {"measurement": "fall in plasma AST", "setting": "[19]", "value": "at least 50%"}]}, {"smiles": "CC(C)(CO)[C@@H](O)C(=O)NCCC(=O)NCCSSCCN", "note": "[cysteamine-pantetheine disulfide, cysteamine-(R)-pantetheine disulfide]", "values": [{"measurement": "plasma cysteamine level six hours after the morning dose", "setting": "[20]; Patient 2, 1,800 mg/day as IR/DR/SR powders", "value": 22, "unit": "µM"}, {"measurement": "plasma cysteamine level 12 hours after the morning dose", "setting": "[20]; Patient 2, immediately before the evening dose", "value": 4, "unit": "µM"}, {"measurement": "WBC cystine level", "setting": "[21]; Patient 2, after sustained release component increased from 540 to 800 mg/day", "value": "0.9 nanomoles of ½ cystine per mg protein"}, {"measurement": "WBC cystine level", "setting": "[21]; Patient 2, after two months, 1,800 mg/day cysteamine free base as IR/DR/SR powders", "value": "1.34 nanomoles of ½ cystine per mg of protein"}]}, {"smiles": "CC(C)(CO)[C@@H](O)C(=O)NCCC(=O)NCCSSCCNC(=O)CCNC(=O)[C@H](O)C(C)(C)CO", "note": "[pantethine]", "values": [{"measurement": "gastrointestinal side effect", "setting": "[22]", "value": "caused diarrhea"}]}, {"smiles": "CC(C)(S)[C@@H](N)C(=O)O", "note": "[penicillamine]", "values": [{"measurement": "tolerability", "setting": "[2]", "value": "not well tolerated by most patients"}]}, {"smiles": "CC(S)C(=O)NCC(=O)O", "note": "(centres unmarked) [tiopronin]", "values": [{"measurement": "tolerability", "setting": "[2]", "value": "not well tolerated by most patients"}]}]}
